The target of assay [1] is T1, glucosylceramide synthase (GCS) (Homo sapiens, UniProt Q16739).
T1 construct: The obtained supernatant was used; host or cells: A549 cells (lysate supernatant after sonication)
T1 sequence (Q16739 1-394): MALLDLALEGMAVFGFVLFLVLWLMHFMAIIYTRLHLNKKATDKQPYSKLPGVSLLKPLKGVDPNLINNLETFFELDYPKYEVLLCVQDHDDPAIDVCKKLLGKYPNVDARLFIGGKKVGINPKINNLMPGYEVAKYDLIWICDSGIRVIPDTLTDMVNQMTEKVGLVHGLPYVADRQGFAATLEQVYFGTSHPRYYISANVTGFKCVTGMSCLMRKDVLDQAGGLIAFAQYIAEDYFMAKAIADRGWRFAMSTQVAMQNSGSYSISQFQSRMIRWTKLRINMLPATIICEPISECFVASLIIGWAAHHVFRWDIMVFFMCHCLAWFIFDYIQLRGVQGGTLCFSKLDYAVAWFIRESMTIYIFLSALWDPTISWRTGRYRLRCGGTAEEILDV
Nature of the assay: GCS enzyme inhibition assay (A549 cell lysate, NBD C6-ceramide, HPLC fluorescence). The conditions noted are these: inhibitory activity against GCS, 37° C., 90 minutes. The class given is biochemical. The method, boiled down:
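A549 cell lysate (50 mM HEPES pH 7.3) served as GCS source; reactions ran 90 min at 37° C, were stopped with chloroform/methanol and lipids extracted. Activity taken as GlcCer/(Cer+GlcCer) peak area, normalised between DMSO and ibiglustat controls.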

Assay [2] deals with GM1 production in Jurkat cells. The assay can be described thus: cells. The class given is cell-based. Particulars: Homo sapiens, Jurkat, 72 h.

The structures appear in SMILES notation.

In general, IC50 refers to the concentration that inhibits the measured activity by half. A lower IC50 goes with greater potency in that assay. `CCOc1c(C)cc(-c2ccc3c(c2)OCC(C)(C)C3NC(=O)O[C@@H]2CN3CCC2CC3)cc1C` (stereo partly drawn) [Example 133, (S)-quinuclidin-3-yl (7-(4-ethoxy-3,5-dimethylphenyl)-3,3-dimethylchroman-4-yl)carbamate]: the IC50 stood at 1.35 nM in assay [1] and 0.1 nM in assay [2].
For the molecule `CCOc1cc(-c2ccc3c(c2)OCC(C)(C)C3NC(=O)O[C@@H]2CN3CCC2CC3)c(Cl)cc1Cl` (stereo partly drawn) [Example 134, (S)-quinuclidin-3-yl (7-(2,4-dichloro-5-ethoxyphenyl)-3,3-dimethylchroman-4-yl)carbamate], the values for the IC50 in assay [1] and in assay [2] were 2.83 nM and 12.7 nM, respectively.
For the molecule `CC(C)Oc1ccc(F)c(-c2ccc3c(c2)OCC(C)(C)C3NC(=O)O[C@@H]2CN3CCC2CC3)c1` (stereo partly drawn) [Example 135, (S)-quinuclidin-3-yl (7-(2-fluoro-5-isopropoxyphenyl)-3,3-dimethylchroman-4-yl)carbamate], the results for the IC50 in assay [1] and in assay [2] were 0.44 nM and 3.46 nM, respectively.
As for `CC(C)Oc1cc(F)cc(-c2ccc3c(c2)OCC(C)(C)C3NC(=O)O[C@@H]2CN3CCC2CC3)c1` (stereo partly drawn) [Example 136, (S)-quinuclidin-3-yl (7-(3-fluoro-5-isopropoxyphenyl)-3,3-dimethylchroman-4-yl)carbamate], the IC50 was determined as 0.61 nM in assay [1] and 2.73 nM in assay [2].
Consider `CC1(C)COc2cc(-c3ccc(C(F)(F)F)cc3Cl)ccc2C1NC(=O)O[C@@H]1CN2CCC1CC2` (stereo partly drawn) [Example 137, (S)-quinuclidin-3-yl (7-(2-chloro-4-(trifluoromethyl)phenyl)-3,3-dimethylchroman-4-yl)carbamate], for which the results for the IC50 in assay [1] and in assay [2] were 0.62 nM and 0.11 nM, respectively.
For the molecule `CC1(C)COc2cc(-c3cccc(C(F)(F)F)c3Cl)ccc2C1NC(=O)O[C@@H]1CN2CCC1CC2` (stereo partly drawn) [Example 138, (S)-quinuclidin-3-yl (7-(2-chloro-3-(trifluoromethyl)phenyl)-3,3-dimethylchroman-4-yl)carbamate], the IC50 in assay [1] was found to be 0.63 nM; in assay [2], 1.57 nM.
As for `CC1(C)COc2cc(-c3cc(C(F)(F)F)ccc3Cl)ccc2C1NC(=O)O[C@@H]1CN2CCC1CC2` (stereo partly drawn) [Example 139, (S)-quinuclidin-3-yl (7-(2-chloro-5-(trifluoromethyl)phenyl)-3,3-dimethylchroman-4-yl)carbamate], the IC50 in assay [1] amounted to 0.62 nM; in assay [2] it was 0.3 nM.
As for `CCCOc1c(C)cc(-c2ccc3c(c2)OCC(C)(C)C3NC(=O)O[C@@H]2CN3CCC2CC3)cc1C` (stereo partly drawn) [Example 140, (S)-quinuclidin-3-yl (7-(3,5-dimethyl-4-propoxyphenyl)-3,3-dimethylchroman-4-yl)carbamate], the values for the IC50 in assay [1] and in assay [2] were 0.88 nM and 0.15 nM, respectively.
With `CC(C)(C)OCc1ccc(-c2ccc3c(c2)OCC(C)(C)C3NC(=O)O[C@@H]2CN3CCC2CC3)cc1` (stereo partly drawn) [Example 141, (S)-quinuclidin-3-yl (7-(4-(tert-butoxymethyl)phenyl)-3,3-dimethylchroman-4-yl)carbamate], the half-maximal inhibitory concentration (IC50) in assay [1] amounted to 0.19 nM; in assay [2], 0.2 nM.
With `CC1(C)COc2cc(-c3cc(OC(F)(F)F)ccc3Cl)ccc2C1NC(=O)O[C@@H]1CN2CCC1CC2` (stereo partly drawn) [Example 142, (S)-quinuclidin-3-yl (7-(2-chloro-5-(trifluoromethoxy)phenyl)-3,3-dimethylchroman-4-yl)carbamate], the IC50 in assay [1] worked out at 0.67 nM; in assay [2] it was 0.19 nM.
Consider `CCCCOc1cccc(F)c1-c1ccc2c(c1)OCC(C)(C)C2NC(=O)O[C@@H]1CN2CCC1CC2` (stereo partly drawn) [Example 143, (S)-quinuclidin-3-yl (7-(2-butoxy-6-fluorophenyl)-3,3-dimethylchroman-4-yl)carbamate], for which the half-maximal inhibitory concentration (IC50) amounted to 0.78 nM in assay [1] and 1.46 nM in assay [2].
Consider `CC1(C)COc2cc(-c3ccc(OCC(F)(F)F)nc3)ccc2C1NC(=O)O[C@@H]1CN2CCC1CC2` (stereo partly drawn) [Example 144, (S)-quinuclidin-3-yl (3,3-dimethyl-7-(6-(2,2,2-trifluoroethoxy)pyridin-3-yl)chroman-4-yl)carbamate], for which the IC50 is 0.17 nM in assay [1] and 1.2 nM in assay [2].
Regarding `COc1ccc2cc(-c3ccc4c(c3)OCC(C)(C)C4NC(=O)O[C@@H]3CN4CCC3CC4)ccc2c1` (stereo partly drawn) [Example 145, (S)-quinuclidin-3-yl (7-(6-methoxynaphthalen-2-yl)-3,3-dimethylchroman-4-yl)carbamate], the concentration for half-maximal inhibition (IC50) in assay [1] worked out at 0.69 nM; in assay [2] it was 0.08 nM.
In the same order, the values of `CCOc1ccc(-c2ccc3c(c2)OCC(C)(C)C3NC(=O)O[C@@H]2CN3CCC2CC3)cc1C(F)(F)F` (stereo partly drawn) [Example 146, (S)-quinuclidin-3-yl (7-(4-ethoxy-3-(trifluoromethyl)phenyl)-3,3-dimethylchroman-4-yl)carbamate] are 0.98 nM and 2.35 nM.
On to `CC1(C)COc2cc(-c3coc4ccccc34)ccc2C1NC(=O)O[C@@H]1CN2CCC1CC2` (stereo partly drawn) [Example 147, (S)-quinuclidin-3-yl (7-(benzofuran-3-yl)-3,3-dimethylchroman-4-yl)carbamate], for which the IC50 in assay [1] was found to be 0.4 nM; in assay [2], 1 nM.
For the molecule `CN(C)c1cccc(-c2ccc3c(c2)OCC(C)(C)C3NC(=O)O[C@@H]2CN3CCC2CC3)c1` (stereo partly drawn) [Example 148, (S)-quinuclidin-3-yl (7-(3-(dimethylamino)phenyl)-3,3-dimethylchroman-4-yl)carbamate], the IC50 in assay [1] amounted to 0.74 nM; in assay [2] it was 0.03 nM.
Take `CC1(C)COc2cc(-c3ccc4c(c3)OC(F)(F)O4)ccc2C1NC(=O)O[C@@H]1CN2CCC1CC2` (stereo partly drawn) [Example 149, (S)-quinuclidin-3-yl (7-(2,2-difluorobenzo[d][1,3]dioxol-5-yl)-3,3-dimethylchroman-4-yl)carbamate]: the IC50 amounted to 0.41 nM in assay [1] and 0.03 nM in assay [2].
For `CC1(C)COc2cc(-c3cc(Cl)ccc3Cl)ccc2C1NC(=O)O[C@@H]1CN2CCC1CC2` (stereo partly drawn) [Example 150, (S)-quinuclidin-3-yl (7-(2,5-dichlorophenyl)-3,3-dimethylchroman-4-yl)carbamate], the figures for the concentration for half-maximal inhibition (IC50) in assay [1] and in assay [2] were 0.72 nM and 0.4 nM, respectively.
As for `CC(C)c1cccc(-c2ccc3c(c2)OCC(C)(C)C3NC(=O)O[C@@H]2CN3CCC2CC3)c1` (stereo partly drawn) [Example 151, (S)-quinuclidin-3-yl (7-(3-isopropylphenyl)-3,3-dimethylchroman-4-yl)carbamate], the IC50 in assay [1] was 0.53 nM; in assay [2] it was 0.31 nM.
The corresponding values for `CC(C)(C)c1cccc(-c2ccc3c(c2)OCC(C)(C)C3NC(=O)O[C@@H]2CN3CCC2CC3)c1` (stereo partly drawn) [Example 152, (S)-quinuclidin-3-yl (7-(3-(tert-butyl)phenyl)-3,3-dimethylchroman-4-yl)carbamate] are 0.91 nM and 0.22 nM.
`COc1ccc(Cl)c(-c2ccc3c(c2)OCC(C)(C)C3NC(=O)O[C@@H]2CN3CCC2CC3)c1` (stereo partly drawn) [Example 153, (S)-quinuclidin-3-yl (7-(2-chloro-5-methoxyphenyl)-3,3-dimethylchroman-4-yl)carbamate]: the figures for the IC50 in assay [1] and in assay [2] were 0.48 nM and 0.06 nM, respectively.
The corresponding values for `CC1(C)COc2cc(-c3cccc(-c4ccccc4)c3)ccc2C1NC(=O)O[C@@H]1CN2CCC1CC2` (stereo partly drawn) [Example 154, (S)-quinuclidin-3-yl (7-([1,1′-biphenyl]-3-yl)-3,3-dimethylchroman-4-yl)carbamate] are 0.74 nM and 0.41 nM.
In the same order, the values of `CC1(C)COc2cc(-c3cncc4ccccc34)ccc2C1NC(=O)O[C@@H]1CN2CCC1CC2` (stereo partly drawn) [Example 155, (S)-quinuclidin-3-yl (7-(isoquinolin-4-yl)-3,3-dimethylchroman-4-yl)carbamate] are 0.6 nM and 0.77 nM.
Turning to `CC1(C)COc2cc(-c3ccccc3F)ccc2C1NC(=O)O[C@@H]1CN2CCC1CC2` (stereo partly drawn) [Example 156, (S)-quinuclidin-3-yl (7-(2-fluorophenyl)-3,3-dimethylchroman-4-yl)carbamate], the figures for the IC50 in assay [1] and in assay [2] were 0.29 nM and 0.27 nM, respectively.
The corresponding values for `CC1(C)COc2cc(-c3ccccc3OC(F)(F)F)ccc2C1NC(=O)O[C@@H]1CN2CCC1CC2` (stereo partly drawn) [Example 157, (S)-quinuclidin-3-yl (3,3-dimethyl-7-(2-(trifluoromethoxy)phenyl)chroman-4-yl)carbamate] are 0.48 nM and 0.12 nM.
For `CCOc1cccc(-c2ccc3c(c2)OCC(C)(C)C3NC(=O)O[C@@H]2CN3CCC2CC3)c1` (stereo partly drawn) [Example 158, (S)-quinuclidin-3-yl (7-(3-ethoxyphenyl)-3,3-dimethylchroman-4-yl)carbamate], the figures for the IC50 in assay [1] and in assay [2] were 0.42 nM and 1.5 nM, respectively.
Turning to `Cn1ncc2c(-c3ccc4c(c3)OCC(C)(C)C4NC(=O)O[C@@H]3CN4CCC3CC4)cccc21` (stereo partly drawn) [Example 159, (S)-quinuclidin-3-yl (3,3-dimethyl-7-(1-methyl-1H-indazol-4-yl)chroman-4-yl)carbamate], the IC50 in assay [1] came to 0.57 nM; in assay [2], 0.55 nM.
For the molecule `CC1(C)COc2cc(-c3cccc4ccncc34)ccc2C1NC(=O)O[C@@H]1CN2CCC1CC2` (stereo partly drawn) [Example 160, (S)-quinuclidin-3-yl (7-(isoquinolin-8-yl)-3,3-dimethylchroman-4-yl)carbamate], the IC50 in assay [1] was determined as 0.52 nM; in assay [2], 0.54 nM.

These data come from US12673944B2, “Compounds having inhibitory activity against glucosylceramide synthase or pharmaceutically acceptable salt thereof, processes for preparing the same, and pharmaceutical compositions comprising the same” (YUHAN CORPORATION, priority 2019, dated 2026).
